Assays:
Format in all cases: biochemical
[1] = molecular target: T1, Zap-70 (Homo sapiens, UniProt P43403); test: Kinase inhibition assay (33P transfer), Zap-70; conditions: Table 3, class symbols; read-out: Zap-1
T1 construct: Kinases are expressed as either kinase domains or full length constructs; made in house
T1 sequence (P43403 1-619): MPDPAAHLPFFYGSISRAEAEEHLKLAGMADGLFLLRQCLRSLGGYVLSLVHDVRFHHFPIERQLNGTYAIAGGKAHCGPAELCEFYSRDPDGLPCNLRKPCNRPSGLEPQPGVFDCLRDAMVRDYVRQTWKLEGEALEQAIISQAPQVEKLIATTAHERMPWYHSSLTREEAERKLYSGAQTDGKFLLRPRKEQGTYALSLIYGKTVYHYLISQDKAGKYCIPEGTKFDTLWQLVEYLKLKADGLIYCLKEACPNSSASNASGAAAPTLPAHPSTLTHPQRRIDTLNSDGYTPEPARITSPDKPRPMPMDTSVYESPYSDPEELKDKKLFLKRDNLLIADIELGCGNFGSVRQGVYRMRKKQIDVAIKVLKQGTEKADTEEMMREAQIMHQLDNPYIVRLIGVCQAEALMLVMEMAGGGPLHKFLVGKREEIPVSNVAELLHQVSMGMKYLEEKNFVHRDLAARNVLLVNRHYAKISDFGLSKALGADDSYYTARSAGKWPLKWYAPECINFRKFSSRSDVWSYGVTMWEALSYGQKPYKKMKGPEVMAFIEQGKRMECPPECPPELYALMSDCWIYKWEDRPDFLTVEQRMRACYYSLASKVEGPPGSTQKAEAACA
Outline: (§1)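 Kinase domain or full-length constructs, GST- or polyHis-tagged, expressed in E. coli or baculovirus-High Five cells, sometimes with regulatory polypeptides. Activity measured as 33PO4 transfer from ATP to plate-bound poly(Glu,Tyr) 4:1 or poly(Arg,Ser) 3:1; after incubation, plates washed with 0.5% phosphoric acid and counted by liquid scintillation.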

[2] = molecular target: T2, c-Met (Homo sapiens, UniProt P08581); test: Kinase inhibition assay (33P transfer), c-Met; conditions: Table 2, class symbols A-E; read-out: Met-1
T2 construct: Kinases are expressed as either kinase domains or full length constructs; made in house
Outline: (§2)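 GST/His-fusion kinases, E. coli or High Five expressed, affinity purified; 33P-ATP, plate-coated poly(Glu,Tyr) 4:1 or poly(Arg,Ser) 3:1; 0.5% H3PO4 wash, scintillant, LSC.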

[3] = molecular target: T3, AKT (Homo sapiens, UniProt Q9Y243); test: Kinase inhibition assay (33P transfer), AKT; conditions: Table 2, class symbols A-E; read-out: AKT3-1
T3 construct: Kinases are expressed as either kinase domains or full length constructs; made in house
Outline: as §1

[4] = molecular target: T4, Lck (Homo sapiens, UniProt P06239); test: Kinase inhibition assay (33P transfer), Lck; conditions: Table 3, class symbols; read-out: Lck-1
T4 construct: Kinases are expressed as either kinase domains or full length constructs; made in house
Outline: as §1

[5] = molecular target: T5, Itk (Homo sapiens, UniProt Q08881); test: Kinase inhibition assay (33P transfer), Itk; conditions: Table 3, class symbols; read-out: Itk-1
T5 construct: Kinases are expressed as either kinase domains or full length constructs; made in house
T5 sequence (Q08881 1-620): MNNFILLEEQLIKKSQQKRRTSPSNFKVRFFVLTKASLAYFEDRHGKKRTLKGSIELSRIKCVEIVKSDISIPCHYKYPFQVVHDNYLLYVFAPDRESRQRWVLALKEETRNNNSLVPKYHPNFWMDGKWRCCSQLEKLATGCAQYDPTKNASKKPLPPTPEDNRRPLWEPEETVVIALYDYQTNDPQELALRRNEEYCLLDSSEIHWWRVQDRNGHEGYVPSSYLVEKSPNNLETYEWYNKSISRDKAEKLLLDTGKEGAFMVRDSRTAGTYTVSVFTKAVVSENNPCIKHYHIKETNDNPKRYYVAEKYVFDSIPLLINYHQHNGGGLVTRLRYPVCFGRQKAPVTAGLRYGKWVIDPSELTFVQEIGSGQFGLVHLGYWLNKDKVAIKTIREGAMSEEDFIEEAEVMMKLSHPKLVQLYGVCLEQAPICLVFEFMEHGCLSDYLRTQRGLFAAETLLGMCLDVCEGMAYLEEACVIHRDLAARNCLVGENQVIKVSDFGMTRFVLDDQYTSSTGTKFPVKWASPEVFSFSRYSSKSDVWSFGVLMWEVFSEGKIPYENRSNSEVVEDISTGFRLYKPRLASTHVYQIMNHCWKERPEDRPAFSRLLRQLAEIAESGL
Outline: as §2

[6] = molecular target: T6, ErbB2 (Homo sapiens, UniProt P04626); test: Kinase inhibition assay (33P transfer), ErbB2; conditions: read-out: ErbB2-2
T6 construct: Kinases are expressed as either kinase domains or full length constructs; made in house
Outline: as §2

[7] = molecular target: T7, Kdr (Homo sapiens, UniProt P35968); test: Kinase inhibition assay (33P transfer), Kdr; conditions: Table 3, class symbols; read-out: KDR-1
T7 construct: Kinases are expressed as either kinase domains or full length constructs; made in house
Outline: as §1

[8] = molecular target: T8, PDGFRB (Homo sapiens, UniProt P09619); test: Kinase inhibition assay (33P transfer), PDGFRB; conditions: read-out: PDGFRB-1
T8 construct: Kinases are expressed as either kinase domains or full length constructs; made in house

[9] = molecular target: T9, EGFR (Homo sapiens, UniProt P00533); test: Kinase inhibition assay (33P transfer), EGFR; conditions: Table 2, class symbols A-E; read-out: EGFR-1
T9 construct: Kinases are expressed as either kinase domains or full length constructs; made in house
Outline: as §2

[10] = molecular target: T10, IGFR-1 (Homo sapiens, UniProt P08069); test: Kinase inhibition assay (33P transfer), IGFR-1; conditions: Table 2, class symbols A-E
T10 construct: Kinases are expressed as either kinase domains or full length constructs; made in house

T2 sequence (P08581 25-1390): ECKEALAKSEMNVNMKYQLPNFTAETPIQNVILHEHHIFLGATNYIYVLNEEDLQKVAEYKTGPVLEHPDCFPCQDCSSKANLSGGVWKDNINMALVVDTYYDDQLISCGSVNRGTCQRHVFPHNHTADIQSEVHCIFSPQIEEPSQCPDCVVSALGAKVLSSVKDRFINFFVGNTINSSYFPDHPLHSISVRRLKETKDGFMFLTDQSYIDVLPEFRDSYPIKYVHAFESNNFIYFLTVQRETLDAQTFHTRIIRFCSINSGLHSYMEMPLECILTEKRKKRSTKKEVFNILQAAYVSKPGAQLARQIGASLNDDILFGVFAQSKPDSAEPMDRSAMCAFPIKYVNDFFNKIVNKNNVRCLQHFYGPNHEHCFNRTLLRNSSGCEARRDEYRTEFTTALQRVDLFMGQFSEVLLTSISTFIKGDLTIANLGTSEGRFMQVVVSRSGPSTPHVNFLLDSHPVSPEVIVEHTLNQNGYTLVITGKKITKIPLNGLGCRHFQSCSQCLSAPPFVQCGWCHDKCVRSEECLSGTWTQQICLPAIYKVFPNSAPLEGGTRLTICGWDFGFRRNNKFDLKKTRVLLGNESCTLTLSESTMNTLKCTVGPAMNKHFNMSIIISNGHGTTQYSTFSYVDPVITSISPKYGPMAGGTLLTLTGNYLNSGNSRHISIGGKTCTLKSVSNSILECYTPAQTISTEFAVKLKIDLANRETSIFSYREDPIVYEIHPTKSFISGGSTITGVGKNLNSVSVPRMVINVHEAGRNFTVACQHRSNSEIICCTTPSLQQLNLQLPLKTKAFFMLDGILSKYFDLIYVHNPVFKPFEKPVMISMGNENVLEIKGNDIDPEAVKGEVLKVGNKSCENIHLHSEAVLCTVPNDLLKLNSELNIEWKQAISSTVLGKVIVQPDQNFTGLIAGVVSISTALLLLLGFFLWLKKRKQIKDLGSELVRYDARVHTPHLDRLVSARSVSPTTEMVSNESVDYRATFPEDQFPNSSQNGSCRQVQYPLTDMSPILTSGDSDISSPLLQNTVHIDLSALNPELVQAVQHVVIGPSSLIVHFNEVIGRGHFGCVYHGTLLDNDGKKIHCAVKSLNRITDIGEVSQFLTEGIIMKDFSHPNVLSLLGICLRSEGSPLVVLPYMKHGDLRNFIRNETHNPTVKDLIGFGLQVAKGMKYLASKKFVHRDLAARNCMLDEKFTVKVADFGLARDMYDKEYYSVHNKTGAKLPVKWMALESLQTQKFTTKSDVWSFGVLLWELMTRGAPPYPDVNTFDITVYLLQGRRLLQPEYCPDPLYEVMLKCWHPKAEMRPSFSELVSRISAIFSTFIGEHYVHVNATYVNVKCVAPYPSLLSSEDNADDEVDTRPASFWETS
T8 sequence (P09619 33-1106, species assumed): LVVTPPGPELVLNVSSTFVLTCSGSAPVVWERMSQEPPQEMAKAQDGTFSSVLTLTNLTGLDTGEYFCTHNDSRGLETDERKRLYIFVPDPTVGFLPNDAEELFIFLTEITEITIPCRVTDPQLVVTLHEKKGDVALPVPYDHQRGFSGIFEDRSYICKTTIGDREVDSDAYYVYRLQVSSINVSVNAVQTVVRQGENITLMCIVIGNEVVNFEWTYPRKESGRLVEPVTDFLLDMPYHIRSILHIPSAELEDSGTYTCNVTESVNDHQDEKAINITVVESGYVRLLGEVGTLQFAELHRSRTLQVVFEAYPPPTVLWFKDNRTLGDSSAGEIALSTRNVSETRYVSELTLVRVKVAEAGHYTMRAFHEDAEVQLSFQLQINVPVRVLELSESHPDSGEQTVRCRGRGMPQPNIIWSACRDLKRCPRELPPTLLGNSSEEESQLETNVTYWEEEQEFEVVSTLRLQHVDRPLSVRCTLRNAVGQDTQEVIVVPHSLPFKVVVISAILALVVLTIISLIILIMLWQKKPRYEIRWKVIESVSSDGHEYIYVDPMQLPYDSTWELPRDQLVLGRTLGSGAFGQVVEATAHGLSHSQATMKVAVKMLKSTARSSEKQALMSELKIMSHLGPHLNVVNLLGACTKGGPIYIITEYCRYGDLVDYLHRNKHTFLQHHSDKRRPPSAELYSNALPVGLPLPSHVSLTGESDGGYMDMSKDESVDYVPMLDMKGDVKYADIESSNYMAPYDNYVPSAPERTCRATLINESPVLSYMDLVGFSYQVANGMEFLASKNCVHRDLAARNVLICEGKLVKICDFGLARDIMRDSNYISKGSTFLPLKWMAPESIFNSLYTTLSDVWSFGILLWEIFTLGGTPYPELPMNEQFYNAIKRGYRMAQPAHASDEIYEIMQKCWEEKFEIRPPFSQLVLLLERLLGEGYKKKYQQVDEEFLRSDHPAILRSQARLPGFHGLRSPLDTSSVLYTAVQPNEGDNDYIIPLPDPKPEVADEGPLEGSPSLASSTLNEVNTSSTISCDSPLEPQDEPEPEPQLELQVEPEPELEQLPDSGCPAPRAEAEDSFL
T7 sequence (P35968 20-1356, species assumed): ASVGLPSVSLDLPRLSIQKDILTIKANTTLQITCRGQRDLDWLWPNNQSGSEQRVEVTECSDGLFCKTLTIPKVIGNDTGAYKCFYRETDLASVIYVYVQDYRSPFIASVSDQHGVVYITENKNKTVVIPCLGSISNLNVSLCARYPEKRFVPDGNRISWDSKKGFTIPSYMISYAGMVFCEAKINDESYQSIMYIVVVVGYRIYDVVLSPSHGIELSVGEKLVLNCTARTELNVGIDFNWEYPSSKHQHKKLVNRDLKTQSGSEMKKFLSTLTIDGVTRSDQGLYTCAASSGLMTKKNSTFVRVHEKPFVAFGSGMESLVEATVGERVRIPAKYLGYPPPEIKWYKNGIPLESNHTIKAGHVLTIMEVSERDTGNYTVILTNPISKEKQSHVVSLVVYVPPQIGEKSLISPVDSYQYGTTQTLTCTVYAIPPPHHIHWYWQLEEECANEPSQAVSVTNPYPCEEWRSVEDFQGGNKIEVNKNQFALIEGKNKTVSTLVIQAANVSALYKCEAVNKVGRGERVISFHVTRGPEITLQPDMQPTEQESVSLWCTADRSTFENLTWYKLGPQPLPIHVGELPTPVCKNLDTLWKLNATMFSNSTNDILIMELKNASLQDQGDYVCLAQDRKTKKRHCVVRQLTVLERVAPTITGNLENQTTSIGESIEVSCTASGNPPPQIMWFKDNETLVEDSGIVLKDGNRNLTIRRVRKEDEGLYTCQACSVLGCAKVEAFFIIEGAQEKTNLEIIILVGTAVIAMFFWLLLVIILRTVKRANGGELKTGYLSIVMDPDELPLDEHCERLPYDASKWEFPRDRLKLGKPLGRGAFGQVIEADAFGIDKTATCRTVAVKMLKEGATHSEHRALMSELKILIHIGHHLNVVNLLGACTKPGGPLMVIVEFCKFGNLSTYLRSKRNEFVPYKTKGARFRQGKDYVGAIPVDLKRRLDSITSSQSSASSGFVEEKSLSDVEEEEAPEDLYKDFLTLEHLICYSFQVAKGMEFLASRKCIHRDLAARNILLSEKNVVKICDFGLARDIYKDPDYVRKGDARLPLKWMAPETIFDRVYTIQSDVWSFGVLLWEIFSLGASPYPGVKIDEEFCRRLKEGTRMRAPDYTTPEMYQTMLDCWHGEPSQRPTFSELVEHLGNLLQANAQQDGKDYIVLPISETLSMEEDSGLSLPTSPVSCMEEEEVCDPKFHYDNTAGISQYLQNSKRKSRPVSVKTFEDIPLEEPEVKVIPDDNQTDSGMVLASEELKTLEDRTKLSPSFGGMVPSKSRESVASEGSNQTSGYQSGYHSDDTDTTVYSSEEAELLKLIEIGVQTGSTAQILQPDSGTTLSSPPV
T6 sequence (P04626 23-1255, species assumed): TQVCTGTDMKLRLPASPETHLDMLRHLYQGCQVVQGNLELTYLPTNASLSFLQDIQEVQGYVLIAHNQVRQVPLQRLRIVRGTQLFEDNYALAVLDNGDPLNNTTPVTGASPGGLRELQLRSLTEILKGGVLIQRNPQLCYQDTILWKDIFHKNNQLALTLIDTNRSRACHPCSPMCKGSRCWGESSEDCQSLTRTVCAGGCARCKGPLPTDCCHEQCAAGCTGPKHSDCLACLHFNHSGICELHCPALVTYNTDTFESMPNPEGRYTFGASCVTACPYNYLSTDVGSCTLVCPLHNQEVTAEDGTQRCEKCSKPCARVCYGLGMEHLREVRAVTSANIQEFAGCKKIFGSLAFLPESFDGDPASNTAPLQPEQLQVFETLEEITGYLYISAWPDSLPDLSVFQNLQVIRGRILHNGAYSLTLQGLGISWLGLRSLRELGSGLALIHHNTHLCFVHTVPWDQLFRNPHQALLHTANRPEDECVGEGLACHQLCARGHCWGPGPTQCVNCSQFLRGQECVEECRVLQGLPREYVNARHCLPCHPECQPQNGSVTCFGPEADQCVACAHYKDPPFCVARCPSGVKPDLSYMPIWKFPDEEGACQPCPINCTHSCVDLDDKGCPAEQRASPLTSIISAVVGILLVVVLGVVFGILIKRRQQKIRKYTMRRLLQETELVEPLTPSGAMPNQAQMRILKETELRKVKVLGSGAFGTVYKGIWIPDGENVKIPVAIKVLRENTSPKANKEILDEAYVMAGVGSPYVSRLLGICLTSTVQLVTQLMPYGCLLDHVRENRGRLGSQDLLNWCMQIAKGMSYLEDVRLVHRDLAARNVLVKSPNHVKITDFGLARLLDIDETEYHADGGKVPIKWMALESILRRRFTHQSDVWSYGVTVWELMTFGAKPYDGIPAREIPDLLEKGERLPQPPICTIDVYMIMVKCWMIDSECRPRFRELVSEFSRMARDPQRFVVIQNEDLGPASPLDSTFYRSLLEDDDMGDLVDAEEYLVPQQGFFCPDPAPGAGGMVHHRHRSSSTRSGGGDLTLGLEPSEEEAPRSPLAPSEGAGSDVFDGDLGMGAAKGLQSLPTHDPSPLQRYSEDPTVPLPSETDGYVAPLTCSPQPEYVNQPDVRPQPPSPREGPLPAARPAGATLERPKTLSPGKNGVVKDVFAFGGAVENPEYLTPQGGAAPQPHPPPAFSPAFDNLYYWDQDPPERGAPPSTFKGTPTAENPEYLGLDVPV

| Compound | IC50 [1] [µM] | IC50 [2] [µM] | IC50 [3] [µM] | IC50 [4] [µM] | IC50 [5] [µM] | IC50 [6] [µM] | IC50 [7] [µM] | IC50 [8] [µM] | IC50 [9] [µM] | IC50 [10] [µM] |
| --- | --- | --- | --- | --- | --- | --- | --- | --- | --- | --- |
| NC(=O)Cc1cccc(Nc2ncnc(-n3c(NCc4ccccc4)nc4ccccc43)n2)c1 [Compound 967] | > 9.99 | 5.33 to 7.77 | 7.77 to 9.99 | < 0.888 | 7.77 to 9.99 | 0.888 to 5.33 | < 0.888 | < 0.888 | < 0.888 | > 9.99 |
| O=C(O)Cc1cccc(Nc2ncnc(Nc3ccc(Cl)cc3F)n2)c1 [Compound 968] | > 12 | 9.36 to 12 | > 12 | > 12 | > 12 | 6.42 to 9.36 | < 1.07 | < 1.07 | 1.07 to 6.42 | 9.36 to 12 |
| COC(=O)c1ccc(-c2cc(Nc3ncnc(Nc4cccc(Cc5nnn[nH]5)c4)n3)[nH]n2)cc1 [Compound 991] | 7.46 to 9.59 | < 0.852 | 5.11 to 7.46 | 5.11 to 7.46 | 5.11 to 7.46 | 0.852 to 5.11 | 5.11 to 7.46 | 0.852 to 5.11 | 0.852 to 5.11 | 0.852 to 5.11 |
| COC(=O)c1ccc(-c2cc(Nc3ncnc(Nc4cccc(CCC(=O)O)c4)n3)[nH]n2)cc1 [Compound 992] | 0.871 to 5.22 | < 0.871 | 5.22 to 7.62 | < 0.871 | 0.871 to 5.22 | 0.871 to 5.22 | 0.871 to 5.22 | 0.871 to 5.22 | 0.871 to 5.22 | < 0.871 |
| COc1cc(Nc2ncnc(Nc3cc(-c4ccc(C(=O)N(C)C)cc4)n[nH]3)n2)cc(OC)c1OC [Compound 993] | > 9.17 | < 0.815 | > 9.17 | < 0.815 | 4.89 to 7.14 | 0.815 to 4.89 | 0.815 to 4.89 | 0.815 to 4.89 | 0.815 to 4.89 | < 0.815 |
| COc1ccc(CNc2ncnc(Nc3cc(-c4ccco4)n[nH]3)n2)cc1 [Compound 994] | > 12.4 | > 12.4 | > 12.4 | > 12.4 | > 12.4 | > 12.4 | > 12.4 | > 12.4 | > 12.4 | > 12.4 |
| c1ccc(CNc2ncnc(Nc3cc(-c4ccco4)n[nH]3)n2)nc1 [Compound 995] | > 13.5 | > 13.5 | > 13.5 | > 13.5 | 10.5 to 13.5 | > 13.5 | 7.18 to 10.5 | 1.2 to 7.18 | 1.2 to 7.18 | 7.18 to 10.5 |
| Fc1ccc(CNc2ncnc(Nc3cc(-c4ccco4)n[nH]3)n2)cc1 [Compound 996] | > 12.8 | > 12.8 | > 12.8 | > 12.8 | > 12.8 | > 12.8 | > 12.8 | > 12.8 | 9.96 to 12.8 | 1.14 to 6.83 |
| COc1cc(CNc2ncnc(Nc3cc(-c4ccco4)n[nH]3)n2)cc(OC)c1OC [Compound 997] | > 10.6 | > 10.6 | > 10.6 | > 10.6 | > 10.6 | > 10.6 | > 10.6 | > 10.6 | > 10.6 | > 10.6 |
| C#Cc1cccc(Nc2ncnc(Nc3cc(-c4ccccc4)n[nH]3)n2)c1 [Compound 1008] | > 12.7 | 1.13 to 6.79 | > 12.7 | 1.13 to 6.79 | 1.13 to 6.79 | > 12.7 | 1.13 to 6.79 | > 12.7 | 1.13 to 6.79 | < 1.13 |
| c1ccc(-c2cc(Nc3ncnc(Nc4cccc(-c5cnco5)c4)n3)[nH]n2)cc1 [Compound 1010] | > 11.4 | < 1.01 | 1.01 to 6.05 | 1.01 to 6.05 | 6.05 to 8.83 | 1.01 to 6.05 | 1.01 to 6.05 | 1.01 to 6.05 | 1.01 to 6.05 | < 1.01 |
| c1ccc(-c2cc(Nc3ncnc(Nc4ccc5[nH]ncc5c4)n3)[nH]n2)cc1 [Compound 1013] | 6.5 to 9.48 | 1.08 to 6.5 | 1.08 to 6.5 | 1.08 to 6.5 | 1.08 to 6.5 | 1.08 to 6.5 | < 1.08 | < 1.08 | 1.08 to 6.5 | < 1.08 |
| O=C(O)c1cccc(Nc2ncnc(-n3c(NCc4ccccc4)nc4ccccc43)n2)c1 [Compound 1069] | > 10.3 | > 10.3 | > 10.3 | > 10.3 | > 10.3 | < 0.914 | < 0.914 | < 0.914 | < 0.914 | > 10.3 |
| COc1ccc(CNc2nc3ccccc3n2-c2ncnc(Nc3cccc(C(=O)O)c3)n2)cc1 [Compound 1070] | > 9.63 | > 9.63 | 5.13 to 7.49 | > 9.63 | > 9.63 | > 9.63 | 0.856 to 5.13 | 0.856 to 5.13 | > 9.63 | > 9.63 |
| COc1cc(Nc2ncnc(-n3ccnc3Cl)n2)cc(OC)c1OC [Compound 1071] | > 12.4 | > 12.4 | > 12.4 | 9.65 to 12.4 | 1.1 to 6.62 | > 12.4 | 9.65 to 12.4 | 1.1 to 6.62 | 1.1 to 6.62 | 1.1 to 6.62 |
| COc1cc(Nc2ncnc(-c3cccnc3Nc3ccccc3)n2)ccc1NC(=O)CCCN1CCNCC1 [Compound 1093] | > 8.34 | 0.741 to 4.45 | > 8.34 | 0.741 to 4.45 | 4.45 to 6.49 | > 8.34 | < 0.741 | < 0.741 | 0.741 to 4.45 | 6.49 to 8.34 |
| O=C(O)Cc1cccc(Nc2ncnc(-c3cccnc3Nc3ccccc3)n2)c1 [Compound 1094] | 6.02 to 8.78 | 1 to 6.02 | > 11.3 | > 11.3 | > 11.3 | 6.02 to 8.78 | < 1 | < 1 | 1 to 6.02 | > 11.3 |
| c1ccc(Nc2ncccc2-c2ncnc(Nc3cccc(Cn4ccnn4)c3)n2)cc1 [Compound 1095] | > 10.7 | > 10.7 | > 10.7 | > 10.7 | > 10.7 | > 10.7 | < 0.949 | < 0.949 | > 10.7 | > 10.7 |
| COc1cc(Nc2ncnc(-c3cccnc3NC(C)C)n2)ccc1NC(=O)CCCN1CCNCC1 [Compound 1096] | > 8.9 | 6.92 to 8.9 | 6.92 to 8.9 | 0.791 to 4.75 | 4.75 to 6.92 | > 8.9 | 0.791 to 4.75 | < 0.791 | > 8.9 | > 8.9 |
